Assay results published in publication PMC7390954 (Frontiers in Microbiology, 2020).
In brackets after ≈: the same amount, converted by molar mass. Peptide text beside a SMILES is read from it.

Assays:
P. aeruginosa = conditions: cited from earlier work
[1] = tested on: Pseudomonas aeruginosa UCBPP-PA14 wild-type
[2] = tested on: P. aeruginosa UCBPP-PA14 wild-type; format: cell-based, Pseudomonas aeruginosa; conditions: standard twofold dilution MIC in 96-well plates
[3] = tested on: P. aeruginosa UCBPP-PA14 wild-type and tssK-2 mutant (1:1); format: cell-based, Pseudomonas aeruginosa

Row | Compound | MIC90 (P. aeruginosa) [µg/mL] | MIC, BM2 (H) ([1]; BM2 with high (2 mM) Mg2+, MIC = no growth after 10 h) [µg/mL] | MIC, BM2 (L) ([1]; BM2 with low (20 μM) Mg2+, 0.002% tween 80, 0.2% rhamnose, MIC = no growth after 10 h) [µg/mL] | Sub-MIC (L) ([1]; BM2 with low (20 μM) Mg2+, concentration that slowed down growth by 30% compared to untreated control) [µg/mL] | MIC, Without Spermidine [2] | MIC, With 4 mM Spermidine ([2]; 4 mM spermidine) | fate of tssK-2 mutant in 1:1 mixture with wild-type [3]
1 | murepavadin | 2 | – | – | – | – | – | –
2 | CC(C)CCCCC(=O)N[C@@H](CCN)C(=O)N[C@H](C(=O)N[C@@H](CCN)C(=O)N[C@H]1CCNC(=O)[C@H]([C@@H](C)O)NC(=O)[C@H](CCN)NC(=O)[C@H](CCN)NC(=O)[C@H](CC(C)C)NC(=O)[C@@H](Cc2ccccc2)NC(=O)[C@H](CCN)NC1=O)[C@@H](C)O [PMB, polymyxin B2] (HELM PEPTIDE1{[CC(C)CCCCC(=O)[*:2]].[Dab].T.[Dab].[Dab].[Dab].[dF].L.[Dab].[Dab].T}$PEPTIDE1,PEPTIDE1,5:R3-11:R2$$$V2.0) | – | 0.3 (≈ 0.252 µM) | 32 (≈ 26.9 µM) | 2 | 50 | >100 | out-competed
